In brackets after ≈: the same amount, converted by molar mass. Where two headings read alike, the source gives them in different places. Positions of bridges follow the written chain, without caps; N, C: chain ends. Non-standard residues stand in square brackets, D forms with d. Residues, ends and D or L forms follow the SMILES beside them. *: point of attachment. Hexanoyl(6-Ph) = O=C(CCCCCc1ccccc1)*; X2 = O=C(c1cc2ccccc2n1Cc1ccccc1)*; X1 = CC[C@H](C)CCCCC(=O)*; X3 = Cc1ccccc1/C=C/C(=O)*; dDab = NCC[C@@H](N)C(=O)O; Dab = NCC[C@H](N)C(=O)O
Tests used:
[1] = system: Streptococcus pyrogens; assay type: cell-based
Experimental: (§1) MIC assay were conducted using the protocol recommended by the Clinical and Laboratory Standards Institute.(37) Culture conditions (temperature, medium) are detailed in Table 3. All compounds were dissolved in sterile DMSO (ATCC, USA) to give a concentration of 6.4 mg/mL. Vancomycin hydrochloride was used as positive controls. Tested compounds were serially diluted across 96-well plates using a 2-fold serial dilution in a volume of 50 μL. An overnight culture of an assay strain was diluted 5,000-fold in fresh medium. 50 μL of this dilution was added into each well, giving a final volume of 100 μL in each well. Compounds were assayed at concentrations ranging from 64 μg/mL to 0.06 μg/mL. The top and bottom rows of each plate were filled with 100 μL of media to avoid edge effects. […] For Clostridium difficile plates were statically incubated under anaerobic conditions (Vinyl anaerobic chamber, 37° C., 5% H2, 5% CO2, 90% N2). For Streptococcus pneumoniae plates were statically incubated under aerobic conditions supplemented with 5% C02 (37° C.). All MICs were performed in technical duplicate (n=2) and repeated three independent times (n=3).

[2] = system: Streptococcus pneumoniae; assay type: cell-based
Experimental: as §1

[3] = system: Enterococcus faecium; assay type: cell-based
Experimental: as §1

[4] = system: Streptococcus agalactiae; assay type: cell-based
Experimental: as §1

[5] = system: Staphylococcus aureus; assay type: cell-based
Experimental: as §1

[6] = system: vancomycin-resistant Enterococci clinical isolates; settings: cited from earlier work
[7] = Enterococci clinical isolate code 781
[8] = Enterococci clinical isolate code 782
[9] = Enterococci clinical isolate code 783
[10] = Enterococci clinical isolate code 784
[11] = Enterococci clinical isolate code 785
[12] = Enterococci clinical isolate code 786
[13] = Enterococci clinical isolate code 787
[14] = Enterococci clinical isolate code 788
[15] = Enterococci clinical isolate code 789
[16] = Enterococci clinical isolate code 790
[17] = Enterococci clinical isolate code 791
[18] = Enterococci clinical isolate code 792
[19] = Enterococci clinical isolate code 793
[20] = Enterococci clinical isolate code 794
[21] = Enterococci clinical isolate code 795
[22] = Enterococci clinical isolate code 796
[23] = Enterococci clinical isolate code 797
[24] = Enterococci clinical isolate code 798
[25] = Enterococci clinical isolate code 799
[26] = Enterococci clinical isolate code 800
[27] = Enterococci clinical isolate code 801
[28] = Enterococci clinical isolate code 802
[29] = Enterococci clinical isolate code 803
[30] = Enterococci clinical isolate code 804
[31] = Enterococci clinical isolate code 805
[32] = Enterococci clinical isolate code 806
[33] = Enterococci clinical isolate code 807
[34] = Enterococci clinical isolate code 808
[35] = Enterococci clinical isolate code 809
[36] = Enterococci clinical isolate code 810

Row | Compound | MIC [5] [µg/mL] | MIC [6, 7] [µg/mL] | MIC [6, 8] [µg/mL] | MIC [6, 9] [µg/mL] | MIC [6, 10] [µg/mL] | MIC [6, 11] [µg/mL] | MIC [6, 12] [µg/mL] | MIC [6, 13] [µg/mL] | MIC [6, 14] [µg/mL] | MIC [6, 15] [µg/mL] | MIC [6, 16] [µg/mL] | MIC [6, 17] [µg/mL] | MIC [6, 18] [µg/mL] | MIC [6, 19] [µg/mL] | MIC [6, 20] [µg/mL] | MIC [6, 21] [µg/mL] | MIC [6, 22] [µg/mL] | MIC [6, 23] [µg/mL] | MIC [6, 24] [µg/mL] | MIC [6, 25] [µg/mL] | further results
1 | CC(C)[C@@H]1NC(=O)[C@H](Cc2ccc(O)cc2)NC(=O)CNC(=O)[C@@H](CC(=O)O)NC(=O)[C@@H](CC(N)=O)NC(=O)CNC(=O)[C@H](CC(=O)O)NC(=O)[C@@H](CCN)NC(=O)[C@@H](NC(=O)[C@@H](CO)NC(=O)CCCCCc2ccccc2)[C@@H](C)OC(=O)[C@H](Cc2ccccc2)NC(=O)[C@H](CCN)NC1=O [Cilagicin L3] ({Hexanoyl(6-Ph)}-[dS]T[dDab]DG[dN][dD]GYV[Dab]F; ester 2-C) | 8 (≈ 5.59 µM) |  |  |  |  |  |  |  |  |  |  |  |  |  |  |  |  |  |  |  | MIC [1]: 1 µg/mL (≈ 0.699 µM); MIC [2]: 4 µg/mL (≈ 2.8 µM); MIC [3]: 64 µg/mL (≈ 44.7 µM); MIC [4]: 16 µg/mL (≈ 11.2 µM)
2 | CC(C)[C@@H]1NC(=O)[C@H](Cc2ccc(O)cc2)NC(=O)CNC(=O)[C@@H](CC(=O)O)NC(=O)[C@@H](CC(N)=O)NC(=O)CNC(=O)[C@H](CC(=O)O)NC(=O)[C@@H](CCN)NC(=O)[C@@H](NC(=O)[C@@H](CO)NC(=O)c2cc3ccccc3n2Cc2ccccc2)[C@@H](C)OC(=O)[C@H](Cc2ccccc2)NC(=O)[C@H](CCN)NC1=O [Cilagicin L4] (X2-[dS]T[dDab]DG[dN][dD]GYV[Dab]F; ester 2-C) | 8 (≈ 5.37 µM) |  |  |  |  |  |  |  |  |  |  |  |  |  |  |  |  |  |  |  | 
3 | CC[C@H](C)CCCCC(=O)N[C@H](CO)C(=O)N[C@@H]1C(=O)N[C@H](CCN)C(=O)N[C@@H](CC(=O)O)C(=O)NCC(=O)N[C@H](CC(N)=O)C(=O)N[C@H](CC(=O)O)C(=O)NCC(=O)N[C@@H](Cc2ccc(O)cc2)C(=O)N[C@@H](C(C)C)C(=O)N[C@@H](CCN)C(=O)N[C@@H](Cc2ccccc2)C(=O)O[C@@H]1C [Cilagicin L5] (X1-[dS]T[dDab]DG[dN][dD]GYV[Dab]F; ester 2-C) | 4 (≈ 2.86 µM) |  |  |  |  |  |  |  |  |  |  |  |  |  |  |  |  |  |  |  | MIC [1]: 1 µg/mL (≈ 0.716 µM); MIC [2]: 4 µg/mL (≈ 2.86 µM); MIC [3]: 64 µg/mL (≈ 45.8 µM); MIC [4]: 8 µg/mL (≈ 5.73 µM)
4 | Cc1ccccc1/C=C/C(=O)N[C@H](CO)C(=O)N[C@@H]1C(=O)N[C@H](CCN)C(=O)N[C@@H](CC(=O)O)C(=O)NCC(=O)N[C@H](CC(N)=O)C(=O)N[C@H](CC(=O)O)C(=O)NCC(=O)N[C@@H](Cc2ccc(O)cc2)C(=O)N[C@@H](C(C)C)C(=O)N[C@@H](CCN)C(=O)N[C@@H](Cc2ccccc2)C(=O)O[C@@H]1C [Cilagicin L6] (X3-[dS]T[dDab]DG[dN][dD]GYV[Dab]F; ester 2-C) | 64 (≈ 45.7 µM) |  |  |  |  |  |  |  |  |  |  |  |  |  |  |  |  |  |  |  | MIC [1]: 4 µg/mL (≈ 2.86 µM); MIC [2]: 32 µg/mL (≈ 22.8 µM); MIC [3]: >64 µg/mL; MIC [4]: 64 µg/mL (≈ 45.7 µM)
5 | CN[C@H](CC(C)C)C(=O)N[C@H]1C(=O)N[C@@H](CC(N)=O)C(=O)N[C@H]2C(=O)N[C@H]3C(=O)N[C@H](C(=O)N[C@H](C(=O)O)c4cc(O)cc(O)c4-c4cc3ccc4O)[C@H](O)c3ccc(c(Cl)c3)Oc3cc2cc(c3O[C@@H]2O[C@H](CO)[C@@H](O)[C@H](O)[C@H]2O[C@H]2C[C@](C)(N)[C@H](O)[C@H](C)O2)Oc2ccc(cc2Cl)[C@H]1O [Vancomycin] |  | >64 | 32 (≈ 22.1 µM) | 64 (≈ 44.2 µM) | 4 (≈ 2.76 µM) | 2 (≈ 1.38 µM) | 32 (≈ 22.1 µM) | >64 | 2 (≈ 1.38 µM) | >64 | >64 | 0.5 (≈ 0.345 µM) | >64 | 1 (≈ 0.69 µM) | >64 | 32 (≈ 22.1 µM) | 8 (≈ 5.52 µM) | 2 (≈ 1.38 µM) | 2 (≈ 1.38 µM) | >64 | MIC [6, 26]: 64 µg/mL (≈ 44.2 µM); MIC [6, 27]: 4 µg/mL (≈ 2.76 µM); MIC [6, 28]: >64 µg/mL; MIC [6, 29]: >64 µg/mL; MIC [6, 30]: 16 µg/mL (≈ 11 µM); MIC [6, 31]: 1 µg/mL (≈ 0.69 µM); MIC [6, 32]: 0.5 µg/mL (≈ 0.345 µM); MIC [6, 33]: >64 µg/mL; MIC [6, 34]: 4 µg/mL (≈ 2.76 µM); MIC [6, 35]: >64 µg/mL; MIC [6, 36]: 1 µg/mL (≈ 0.69 µM)
6 | Gentamicin |  | ≤500 | >500 | >500 | ≤500 | >500 | >500 | ≤500 | ≤500 | >500 | ≤500 | ≤500 | >500 | ≤500 | >500 | >500 | ≤500 | ≤500 | ≤500 | >500 | MIC [6, 26]: >500 µg/mL; MIC [6, 27]: >500 µg/mL; MIC [6, 28]: >500 µg/mL; MIC [6, 29]: >500 µg/mL; MIC [6, 30]: >500 µg/mL; MIC [6, 31]: ≤500 µg/mL; MIC [6, 32]: ≤500 µg/mL; MIC [6, 33]: ≤500 µg/mL; MIC [6, 34]: ≤500 µg/mL; MIC [6, 35]: ≤500 µg/mL; MIC [6, 36]: ≤500 µg/mL
7 | Penicillin |  | 2 | 2 | >32 | 2 | 4 | 1 | 32 | 1 | ≤0.12 | >32 | 2 | >32 | 2 | >32 | 4 | 2 | 0.5 | 1 | 2 | MIC [6, 26]: 2 µg/mL; MIC [6, 27]: 1 µg/mL; MIC [6, 28]: >32 µg/mL; MIC [6, 29]: >32 µg/mL; MIC [6, 30]: 4 µg/mL; MIC [6, 31]: 2 µg/mL; MIC [6, 32]: 8 µg/mL; MIC [6, 33]: >32 µg/mL; MIC [6, 34]: 2 µg/mL; MIC [6, 35]: 1 µg/mL; MIC [6, 36]: 2 µg/mL
8 | Teicoplanin |  | >64 | 0.5 | 2 | 0.5 | 0.5 | 0.25 | >64 | 1 | >64 | 1 | 0.5 | 1 | 0.5 | 64 | 0.5 | 1 | 1 | 1 | 0.5 | MIC [6, 26]: 0.5 µg/mL; MIC [6, 27]: 1 µg/mL; MIC [6, 28]: 64 µg/mL; MIC [6, 29]: >64 µg/mL; MIC [6, 30]: 0.5 µg/mL; MIC [6, 31]: 0.5 µg/mL; MIC [6, 32]: 1 µg/mL; MIC [6, 33]: 1 µg/mL; MIC [6, 34]: 0.5 µg/mL; MIC [6, 35]: 64 µg/mL; MIC [6, 36]: 0.5 µg/mL
